The values below come from patent US20140315889A1, “HYDROXAMATE DERIVATIVES FOR HDAC INHIBITOR, AND THE PHARMACEUTICAL COMPOSITION COMPRISING THEREOF” (CHONG KUN DANG PHARMACEUTICAL CORP., priority 2011, published 2014).

Structures are written as SMILES.

One assay concerns the target T1, human recombinant HDAC6 (Homo sapiens, UniProt Q9UBN7).
T1 construct: purchased Calibiochem Co. (so in the source) 382180
T1 sequence (Q9UBN7 1-1215): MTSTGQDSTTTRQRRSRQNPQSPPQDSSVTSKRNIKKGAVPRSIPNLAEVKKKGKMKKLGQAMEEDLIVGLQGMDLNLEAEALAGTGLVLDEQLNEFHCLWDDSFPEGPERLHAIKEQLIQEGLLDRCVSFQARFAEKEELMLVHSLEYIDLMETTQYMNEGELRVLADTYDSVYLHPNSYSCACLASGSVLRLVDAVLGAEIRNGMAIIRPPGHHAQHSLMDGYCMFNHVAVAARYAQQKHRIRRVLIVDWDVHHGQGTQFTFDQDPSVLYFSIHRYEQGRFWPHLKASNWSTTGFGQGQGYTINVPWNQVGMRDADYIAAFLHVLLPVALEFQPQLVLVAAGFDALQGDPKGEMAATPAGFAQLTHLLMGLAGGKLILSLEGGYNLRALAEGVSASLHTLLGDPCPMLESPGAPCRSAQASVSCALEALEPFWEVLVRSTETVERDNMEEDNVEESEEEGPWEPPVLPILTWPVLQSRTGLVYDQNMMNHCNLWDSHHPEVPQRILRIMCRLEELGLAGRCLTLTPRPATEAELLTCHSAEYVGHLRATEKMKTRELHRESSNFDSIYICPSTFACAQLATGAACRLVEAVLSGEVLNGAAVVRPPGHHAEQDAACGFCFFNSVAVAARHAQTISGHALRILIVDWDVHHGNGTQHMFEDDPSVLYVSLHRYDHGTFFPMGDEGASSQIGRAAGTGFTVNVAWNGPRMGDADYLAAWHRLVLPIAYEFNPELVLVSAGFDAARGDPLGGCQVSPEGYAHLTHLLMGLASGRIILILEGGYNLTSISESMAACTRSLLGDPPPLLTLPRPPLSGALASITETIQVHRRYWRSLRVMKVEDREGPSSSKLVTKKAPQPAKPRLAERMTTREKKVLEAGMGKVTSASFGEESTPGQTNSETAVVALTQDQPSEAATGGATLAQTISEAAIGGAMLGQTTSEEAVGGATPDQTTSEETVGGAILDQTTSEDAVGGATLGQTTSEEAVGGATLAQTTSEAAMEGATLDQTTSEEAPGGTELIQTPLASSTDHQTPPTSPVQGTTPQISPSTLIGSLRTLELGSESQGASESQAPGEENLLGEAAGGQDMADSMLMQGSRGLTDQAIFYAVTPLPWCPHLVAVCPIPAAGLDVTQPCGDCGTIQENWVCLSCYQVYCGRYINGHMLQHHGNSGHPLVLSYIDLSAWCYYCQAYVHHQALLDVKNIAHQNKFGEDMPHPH
Description: HDAC enzyme activity test, HDAC6. Format: biochemical. The following applies: Table 12; for Selectivity for HDAC6, HD1/HD6: ratio HDAC1 IC50 / HDAC6 IC50; for IC50: read-out: Inhibition ability (IC50) HDAC6. Here is the method: (§1) Then, 0.3 μg of enzyme and 10 μM of substrate per well were added, reacted at 30° C. for 60 minutes. Thereto, Fluor de Lys® Developer II (BML-KI176) was added and reacted for 30 minutes. […] From the data, the respective IC50 were calculated by GraphPad Prism 4.0 program.

The target in a further assay is T2, Human recombinant HDAC1 (Homo sapiens, UniProt Q13547).
T2 construct: purchased Enzo Life Science Co. (named for the kit; assigned to the enzyme from the BML- catalogue prefix) BML-SE456
In words: HDAC enzyme activity test, HDAC1. It is filed as biochemical. As to conditions: Table 12; read-out: Inhibition ability (IC50) HDAC1. As to the method: as §1

T2 sequence (Q13547 whole entry): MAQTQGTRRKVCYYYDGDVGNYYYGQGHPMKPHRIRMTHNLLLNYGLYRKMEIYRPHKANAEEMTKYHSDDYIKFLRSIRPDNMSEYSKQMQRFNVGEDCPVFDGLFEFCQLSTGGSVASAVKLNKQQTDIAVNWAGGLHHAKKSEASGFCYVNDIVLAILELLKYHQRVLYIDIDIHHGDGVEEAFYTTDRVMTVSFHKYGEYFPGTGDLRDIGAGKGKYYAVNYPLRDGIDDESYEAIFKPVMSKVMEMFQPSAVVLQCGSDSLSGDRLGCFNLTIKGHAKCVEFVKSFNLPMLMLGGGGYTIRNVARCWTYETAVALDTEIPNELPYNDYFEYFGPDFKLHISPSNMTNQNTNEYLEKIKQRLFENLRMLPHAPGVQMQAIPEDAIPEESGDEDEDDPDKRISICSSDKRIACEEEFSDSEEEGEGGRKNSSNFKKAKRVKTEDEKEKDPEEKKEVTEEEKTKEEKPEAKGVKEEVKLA

What is called IC50 is the midpoint of a concentration-inhibition curve. As to `O=C(CCCCCn1c2c(c3cc(F)ccc31)C(=O)C(CN1CCN(c3ccc(F)cc3)CC1)CC2)NO` (stereo not drawn) [Compound 322, 6-(6-fluoro-3-((4-(4-fluorophenyl)piperazin-1-yl)methyl)-4-oxo-1,2,3,4-tetrahydrocarbazol-9-yl)-N-hydroxyhexanamide], at human recombinant HDAC6, the “Selectivity for HDAC6, HD1/HD6” value was 40.8 and the IC50 came out at 182 nM. Moreover, the IC50 at Human recombinant HDAC1 was 7440 nM.

For `O=C(CCCCCn1c2c(c3ccccc31)C(=O)C(CN1CCOCC1)CC2)NO` (stereo not drawn) [Compound 193, N-hydroxy-6-(3-(morpholinomethyl)-4-oxo-1,2,3,4-tetrahydrocarbazol-9-yl)hexanamide], at human recombinant HDAC6, the “Selectivity for HDAC6, HD1/HD6” value stood at 464.3 and the IC50 turned out to be 7.5 nM. Moreover, the IC50 at Human recombinant HDAC1 was determined as 3500 nM.

With `CS(=O)(=O)N1CCN(CC2CCc3c(c4ccccc4n3Cc3ccc(C(=O)NO)cc3)C2=O)CC1` (stereo not drawn) [Compound 130, N-hydroxy-4-((3-((4-(methylsulfonyl)piperazin-1-yl)methyl)-4-oxo-1,2,3,4-tetrahydrocarbazol-9-yl)methyl)benzamide], on human recombinant HDAC6, the “Selectivity for HDAC6, HD1/HD6” value worked out at 564.9 and the IC50 stood at 4.7 nM. At Human recombinant HDAC1, the IC50 is 2640 nM.

Turning to `CC1(C)CC(=O)c2c(n(CCCCCCC(=O)NO)c3ccc(Br)cc23)C1` [Compound 50, 7-(6-bromo-2,2-dimethyl-4-oxo-1,2,3,4-tetrahydrocarbazol-9-yl)-N-hydroxyheptanamide], at human recombinant HDAC6, the “Selectivity for HDAC6, HD1/HD6” value came out at 17.7 and the IC50 was 8.95 nM. On Human recombinant HDAC1, the IC50 is 158 nM.

On to `O=C(NO)c1ccc(Cn2c3c(c4ccccc42)C(=O)N(CCN2CCC[C@H]2CO)CC3)cc1` [Compound 267, (S)—N-hydroxy-4-((2-(2-(2-(hydroxymethyl)pyrrolidin-1-yl)ethyl)-1-oxo-1,2,3,4-tetrahydropyrido[4,3-b]indol-5-yl)methyl)benzamide], for which, at human recombinant HDAC6, the “Selectivity for HDAC6, HD1/HD6” value turned out to be 678.8 and the IC50 was found to be 3.35 nM. Also, the IC50 on Human recombinant HDAC1 stood at 2270 nM.

Take `CC1(C)CC(=O)c2c(n(CCCCCC(=O)NO)c3c(Cl)ccc(Cl)c23)C1` [Compound 48, 6-(1,4-dichloro-7,7-dimethyl-5-oxo-5,6,7,8-tetrahydrocarbazol-9-yl)-N-hydroxyhexanamide]: on human recombinant HDAC6, the “Selectivity for HDAC6, HD1/HD6” value stood at 30.1 and the IC50 worked out at 145 nM. In addition, the IC50 on Human recombinant HDAC1 was 4370 nM.

As for `CCN1CCN(CC2CCc3c(c4cc(F)ccc4n3Cc3ccc(C(=O)NO)cc3)C2=O)CC1` (stereo not drawn) [Compound 189, 4-((3-((4-ethylpiperazin-1-yl)methyl)-6-fluoro-4-oxo-1,2,3,4-tetrahydrocarbazol-9-yl)methyl)-N-hydroxybenzamide], on human recombinant HDAC6, the “Selectivity for HDAC6, HD1/HD6” value is listed as 193.5 and the IC50 was determined as 11.5 nM. The IC50 at Human recombinant HDAC1 was 2230 nM.

`O=C(NO)c1ccc(Cn2c3c(c4cc(F)ccc42)C(=O)C(CN2CCOCC2)CC3)cc1` (stereo not drawn) [Compound 141, 4-((6-fluoro-3-(morpholinomethyl)-4-oxo-1,2,3,4-tetrahydrocarbazol-9-yl)methyl)-N-hydroxybenzamide]: on human recombinant HDAC6, the “Selectivity for HDAC6, HD1/HD6” value was determined as 850.7 and the IC50 amounted to 4.9 nM. Moreover, the IC50 at Human recombinant HDAC1 was 4140 nM.

For `CC1(C)CC(=O)c2c(n(Cc3ccc(C(=O)NO)cc3)c3c(Cl)ccc(Cl)c23)C1` [Compound 49, 4-((1,4-dichloro-7,7-dimethyl-5-oxo-5,6,7,8-tetrahydrocarbazol-9-yl)methyl)-N-hydroxybenzamide], at human recombinant HDAC6, the “Selectivity for HDAC6, HD1/HD6” value was found to be 144.8 and the IC50 is 93 nM. For the same compound, the IC50 on Human recombinant HDAC1 came out at 13500 nM.

Regarding `CC(C)(O)CN1CCN(CC2CCc3c(c4cc(F)ccc4n3Cc3ccc(C(=O)NO)cc3)C2=O)CC1` (stereo not drawn) [Compound 191, 4-((6-fluoro-3-((4-(2-hydroxy-2-methylpropyl)piperazin-1-yl)methyl)-4-oxo-1,2,3,4-tetrahydrocarbazol-9-yl)methyl)-N-hydroxybenzamide], the “Selectivity for HDAC6, HD1/HD6” value at human recombinant HDAC6 is 1115.6. In addition, the IC50 at human recombinant HDAC6 came to 7.4 nM; at Human recombinant HDAC1 it was 8280 nM.

As for `CC1(C)CC(=O)c2c(n(Cc3ccc(C(=O)NO)cc3)c3ccc(F)c(F)c23)C1` [Compound 73, 4-((5,6-difluoro-2,2-dimethyl-4-oxo-1,2,3,4-tetrahydrocarbazol-9-yl)methyl)-N-hydroxybenzamide], at human recombinant HDAC6, the “Selectivity for HDAC6, HD1/HD6” value is 52.1 and the IC50 was determined as 75.1 nM. The IC50 on Human recombinant HDAC1 came out at 3910 nM.

Take `CC1(C)CC(=O)c2c(n(CCCCCCC(=O)NO)c3c(Br)cccc23)C1` [Compound 52, 7-(1-bromo-7,7-dimethyl-5-oxo-5,6,7,8-tetrahydrocarbazol-9-yl)-N-hydroxyheptanamide]: at human recombinant HDAC6, the “Selectivity for HDAC6, HD1/HD6” value is given as 27.7 and the IC50 was 23.9 nM. Moreover, the IC50 at Human recombinant HDAC1 came out at 662 nM.

Turning to `CC1(C)CC(=O)c2c(n(Cc3ccc(C(=O)NO)cc3)c3ccc(Br)cc23)C1` [Compound 45, 4-((6-bromo-2,2-dimethyl-4-oxo-1,2,3,4-tetrahydrocarbazol-9-yl)methyl)-N-hydroxybenzamide], at human recombinant HDAC6, the “Selectivity for HDAC6, HD1/HD6” value stood at 42.1 and the concentration for half-maximal inhibition (IC50) came to 130 nM. Moreover, the IC50 at Human recombinant HDAC1 was determined as 5480 nM.

In the case of `CCCCN1CCN(CC2CCc3c(c4cc(F)ccc4n3Cc3ccc(C(=O)NO)cc3)C2=O)CC1` (stereo not drawn) [Compound 190, 4-((3-((4-butylpiperazin-1-yl)methyl)-6-fluoro-4-oxo-1,2,3,4-tetrahydrocarbazol-9-yl)methyl)-N-hydroxybenzamide], at human recombinant HDAC6, the “Selectivity for HDAC6, HD1/HD6” value was 385.1 and the IC50 came to 5.8 nM. Besides, the IC50 on Human recombinant HDAC1 stood at 2250 nM.

Consider `CC1(C)CC(=O)c2c(n(CCCCCC(=O)NO)c3cc(F)c(F)cc23)C1` [Compound 72, 6-(6,7-difluoro-2,2-dimethyl-4-oxo-1,2,3,4-tetrahydrocarbazol-9-yl)-N-hydroxyhexanamide], for which, on human recombinant HDAC6, the “Selectivity for HDAC6, HD1/HD6” value is 28.2 and the IC50 came out at 215 nM. At Human recombinant HDAC1, the IC50 is 6060 nM.

For `CC(C)(C)OC(=O)N1CCN(CC2CCc3c(c4cc(F)ccc4n3CCCCCC(=O)NO)C2=O)CC1` (stereo not drawn) [Compound 324, tert-butyl 4-((6-fluoro-9-(6-(hydroxyamino)-6-oxohexyl)-4-oxo-2,3,4,9-tetrahydro-1H-carbazol-3-yl)methyl)piperazine-1-carboxylate], at human recombinant HDAC6, the “Selectivity for HDAC6, HD1/HD6” value was found to be 113.2 and the IC50 was determined as 103 nM. For the same compound, the 50% inhibitory concentration (IC50) at Human recombinant HDAC1 stood at 11600 nM.

As for `Cc1c2c(n(Cc3ccc(C(=O)NO)cc3)c1C)CCC(CN1CCOCC1)C2=O` (stereo not drawn) [Compound 268, 4-((2,3-dimethyl-5-(morpholinomethyl)-4-oxo-4,5,6,7-tetrahydroindol-1-yl)methyl)-N-hydroxybenzamide], at human recombinant HDAC6, the “Selectivity for HDAC6, HD1/HD6” value was 448.4 and the IC50 was determined as 13.5 nM. Moreover, at Human recombinant HDAC1, the IC50 was found to be 6050 nM.

Consider `Cc1c2c(n(CCCCCCC(=O)NO)c1C)CCCC2=O` [Compound 328, 7-(2,3-dimethyl-4-oxo-4,5,6,7-tetrahydro-1H-indol-1-yl)-N-hydroxyheptanamide], for which, at human recombinant HDAC6, the “Selectivity for HDAC6, HD1/HD6” value turned out to be 145.1 and the IC50 was found to be 22.1 nM. Besides, the IC50 on Human recombinant HDAC1 was 3210 nM.

As for `O=C(NO)c1ccc(Cn2c3c(c4ccccc42)C(=O)C(CN2CCC(F)(F)C2)CC3)cc1` (stereo not drawn) [Compound 123, 4-((3-((3,3-difluoropyrrolidin-1-yl)methyl)-4-oxo-1,2,3,4-tetrahydrocarbazol-9-yl)methyl)-N-hydroxybenzamide], the “Selectivity for HDAC6, HD1/HD6” value on human recombinant HDAC6 is given as 539.8. Further, the figures for the IC50 on human recombinant HDAC6 and on Human recombinant HDAC1 were 6.61 nM and 3570 nM, respectively.
